The subject of series [1] is E. coli CICC21530 (serotype O157:H7). Format: cell-based, Escherichia coli. Particulars: microtiter broth dilution, 10^5 CFU/ml, 16‒18 h at 37 °C; representative of three independent experiments. On the procedure:
(§1) The MIC values of LfcinB17-33 derivatives against bacteria were determined by the microtiter broth dilution method. Briefly, 10 μl of serially diluted aliquots of peptides were added to each well of 96-well microtiter plates, followed by the addition of 90 μl exponential phase bacteria (10^5 CFU/ml) and incubated for 16‒18 h at 37 °C.
A general note: Broth dilution looks for growth in wells or tubes with falling amounts of substance.

In the next series the test system is E. coli CVCC1515. Format: cell-based, Escherichia coli. Particulars: CVCC1515, 18 h. On the procedure:
as §1

A further series concerns S. enteritidis CVCC3377. Format: cell-based, Salmonella enteritidis. Particulars: CVCC3377, 18 h. As for the experimental part: as §1
Series [2] has as its system S. aureus ATCC25923. Format: cell-based, Staphylococcus aureus. Particulars: ATCC25923, 18 h. As for the experimental part: as §1
The next series concerns P. aeruginosa CICC21630. Format: cell-based, Pseudomonas aeruginosa. Particulars: CICC21630, 18 h. As for the experimental part:
as §1

The next series relates to S. choleraesuis CVCC503. Format: cell-based. Particulars: CVCC503, 18 h. On the procedure: as §1
A further series relates to S. pullorum CVCC1802. Format: cell-based. Particulars: CVCC1802, 18 h. As for the experimental part:
as §1

The subject of series [3] is Enterococcus faecium CMCC1.2136. Format: cell-based. Particulars: CMCC1.2136, 18 h. As for the experimental part:
as §1

Series [4] has as its system Bacillus subtilis ATCC6633. Format: cell-based. Particulars: ATCC6633, 18 h. As for the experimental part: as §1
Series [5] relates to Salmonella typhimurium ATCC14028. Format: cell-based. Particulars: ATCC14028, 18 h. On the procedure:
as §1

Another series deals with Escherichia coli CVCC195. Format: cell-based. Particulars: CVCC195, 18 h. On the procedure:
as §1

The test system of series [6] is Streptococcus suis CVCC606. Format: cell-based. Particulars: 18 h. On the procedure:
as §1

Series [7] relates to Staphylococcus aureus ATCC43300. Format: cell-based. Particulars: ATCC43300, 18 h. On the procedure: as §1
Series [8] concerns Pseudomonas aeruginosa CICC10419. Format: cell-based. Particulars: CICC10419, 18 h. On the procedure:
as §1

The test system of a further series is S. pullorum CVCC1789. Format: cell-based. Particulars: CVCC1789, 18 h. As for the experimental part:
as §1

The next series concerns LPS from E. coli O111:B4. As to the kind of experiment: LPS-induced endotoxemia model, survival. Format: in vivo, mouse (C57BL/6). Particulars: 15 mg/kg i.p. at 0.5, 8 and 24 h after LPS 30 mg/kg i.p.; followed 7 d; groups of eight mice. On the procedure:
Male C57BL/6 mice (8 weeks old, 22 ± 2 g) were intraperitoneally injected with 30 mg/kg of LPS (0.2 ml) from E. coli O111:B4 cells as previously described. Mice were intraperitoneally injected with Lfcin4 or Lfcin5 (10, 15 or 20 mg/kg of body weight in 0.2 ml) or colistin (15 mg/kg of body weight in 0.2 ml) at 0.5, 8 and 24 h after inoculation with LPS, respectively. Mice injected with LPS or saline only served as positive or mock-treated controls, respectively. Survival was recorded every 12 h and followed for up to 7 d.

Series [9] relates to S. aureus ATCC25923. Format: in vivo. As for the experimental part: The thigh infection protocol was performed as previously described. Female BALB/c mice (6 weeks old, 22 ± 2 g) were rendered neutropenic (neutrophils, 100/mm^3) by intraperitoneal injection with 150 and 100 mg cyclophosphamide per kg of body weight for 4 d and 1 d before infection, respectively. Mice were inoculated with 100 μl of S. aureus ATCC25923 cells (1.0 × 10^7 CFU/ml) and given a single dose (0.2 ml) of Lfcin4 or Lfcin5 (10 or 15 mg/kg of body weight) or vancomycin (10 mg/kg of body weight) by tail vein injection at 2 h post-infection. Mice were humanely euthanized by cervical dislocation at 5 and 10 h after treatment. Thighs were removed and homogenized in sterile PBS for a CFU assay for S. aureus ATCC25923.

A further series relates to mouse erythrocytes. Particulars: 256 μg/ml; cited from earlier work.

Converted amounts (≈) assume the structure as drawn. Read-outs that look alike come from different tables or passages of the source. Ends that are not written are not given here.

One may read the MIC as the smallest concentration in the dilution series that meets the test's criterion for growth inhibition. On to FKAFRWAWRMKKLAAPS [Lfcin3], for which the MIC is 31 µM in series [1]; 31 µM with E. coli CVCC1515; 1.9 µM against S. enteritidis CVCC3377; 0.95 µM in the series on S. aureus ATCC25923 [2]; more than 61 µM in the series with P. aeruginosa CICC21630; 61 µM in the series on S. choleraesuis CVCC503. In addition, the MIC was more than 61 µM against S. pullorum CVCC1802; 15 µM in series [3]; 15 µM in series [4]; 61 µM in [5]; 31 µM against Escherichia coli CVCC195; 61 µM in series [6]. The MIC (in series [7]; in series [8]; with S. pullorum CVCC1789) was more than 61 µM in each case.
FKCWRWQWRWKKLGAPS [Lfcin6]: the MIC was 57 µM in series [1]; 57 µM with E. coli CVCC1515; 7.1 µM against S. enteritidis CVCC3377; 7.1 µM against S. aureus ATCC25923 [2]; more than 57 µM with P. aeruginosa CICC21630; more than 57 µM in the series with S. choleraesuis CVCC503. For the same compound, the MIC was more than 57 µM against S. pullorum CVCC1802; 14 µM in series [3]; 57 µM in series [4]; more than 57 µM in series [5]; 57 µM in the series with Escherichia coli CVCC195; more than 57 µM in [6]. For the same compound, the MIC (in series [7]; in [8]; with S. pullorum CVCC1789) was more than 57 µM in each case.
Compound colistin [reference compound] showed a survival rate in the series with LPS from E. coli O111:B4 of 75%.
For `CN[C@H](CC(C)C)C(=O)N[C@H]1C(=O)N[C@@H](CC(N)=O)C(=O)N[C@H]2C(=O)N[C@H]3C(=O)N[C@H](C(=O)N[C@H](C(=O)O)c4cc(O)cc(O)c4-c4cc3ccc4O)[C@H](O)c3ccc(c(Cl)c3)Oc3cc2cc(c3O[C@@H]2O[C@H](CO)[C@@H](O)[C@H](O)[C@H]2O[C@H]2C[C@](C)(N)[C@H](O)[C@H](C)O2)Oc2ccc(cc2Cl)[C@H]1O` [vancomycin, reference compound], the “decrease of bacterial count in thigh” value in the series with S. aureus ATCC25923 [9] (10 mg/kg single i.v. dose (Fig. 6B), time not restated, sentence follows the 5 h result) stood at 0.1 log10 CFU/g. The “S. aureus cells killed” value with S. aureus ATCC25923 [9] (10 h post-treatment, 10 mg/kg single i.v. dose) is recorded as −1.2%.
On to FKAFRWAWRWKKLAAPS [Lfcin5], for which the MIC was 30 µM in series [1]; 60 µM in the series with E. coli CVCC1515; 1.9 µM with S. enteritidis CVCC3377; 0.93 µM in the series on S. aureus ATCC25923 [2]; more than 60 µM against P. aeruginosa CICC21630; 60 µM against S. choleraesuis CVCC503. Also, the MIC in the series on S. pullorum CVCC1802 was more than 60 µM; in series [3], 7.4 µM; in series [4] it was 15 µM; in series [5], more than 30 µM; in the series on Escherichia coli CVCC195 it was 30 µM; in series [6], 60 µM. The MIC was 30 µM in [7], more than 60 µM in [8] and more than 60 µM against S. pullorum CVCC1789. Further, in the series on S. aureus ATCC25923 [9] (ATCC25923, mouse, in vivo, iv, 15 mg/kg, 10 h), the “S. aureus cells killed” value is on record as “approximately 76.6%”.
`CSCC[C@H](NC(=O)[C@H](CCCNC(=N)N)NC(=O)[C@H](Cc1c[nH]c2ccccc12)NC(=O)[C@H](CCC(N)=O)NC(=O)[C@H](Cc1c[nH]c2ccccc12)NC(=O)[C@H](CCCNC(=N)N)NC(=O)[C@H](CCCNC(=N)N)NC(=O)[C@H](CS)NC(=O)[C@H](CCCCN)NC(=O)[C@@H](N)Cc1ccccc1)C(=O)N[C@@H](CCCCN)C(=O)N[C@@H](CCCCN)C(=O)N[C@@H](CC(C)C)C(=O)NCC(=O)N[C@@H](C)C(=O)N1CCC[C@H]1C(=O)N[C@@H](CO)C(=O)O` [Lfcin2]: the MIC was 59 µM (≈ 129 µg/mL) in series [1]; more than 59 µM with E. coli CVCC1515; 15 µM (≈ 32.7 µg/mL) with S. enteritidis CVCC3377; 0.92 µM (≈ 2 µg/mL) in the series with S. aureus ATCC25923 [2]; more than 59 µM in the series on P. aeruginosa CICC21630; 59 µM (≈ 129 µg/mL) with S. choleraesuis CVCC503. Also, the MIC against S. pullorum CVCC1802 was more than 59 µM; in series [3] it was 15 µM (≈ 32.7 µg/mL); in series [4], 29 µM (≈ 63.2 µg/mL); in series [5] it was 29 µM (≈ 63.2 µg/mL); with Escherichia coli CVCC195, 15 µM (≈ 32.7 µg/mL); in series [6], more than 59 µM. In addition, the MIC (in series [7]; in series [8]; with S. pullorum CVCC1789) was more than 59 µM throughout.
For the compound `CSCC[C@H](NC(=O)[C@H](CCCNC(=N)N)NC(=O)[C@H](Cc1c[nH]c2ccccc12)NC(=O)[C@H](CCC(N)=O)NC(=O)[C@H](Cc1c[nH]c2ccccc12)NC(=O)[C@H](CCCNC(=N)N)NC(=O)[C@H](CCCNC(=N)N)NC(=O)[C@H](CS)NC(=O)[C@H](CCCCN)NC(=O)[C@@H](N)Cc1ccccc1)C(=O)N[C@@H](CCCCN)C(=O)N[C@@H](CCCCN)C(=O)N[C@@H](CC(C)C)C(=O)NCC(=O)N[C@@H](C)C(=O)O` [Lfcin1], in the series on mouse erythrocytes, the hemolysis result is given as “approximately 7.5%”.
